The values that follow are results of earlier work, collected in patent US11154507B2, “Freeze-dried aripiprazole formulation” (OTSUKA PHARMACEUTICAL CO., LTD., priority 2011, dated 2021).

The conditions of this series: room temperature.

As to `O=C1CCc2ccc(OCCCCN3CCN(c4cccc(Cl)c4Cl)CC3)cc2N1` [Aripiprazole], the solubility in water is below 1 µg/mL.
